US10654837B2, “Sulphamoylaryl derivatives and use thereof as medicaments for the treatment of liver fibrosis” (Janssen Pharmaceutica NV, priority 2017, dated 2020)
pIC50: −log10 of the molar value.

target: T1, 5HTR2B (Homo sapiens, UniProt P41595); test: 5HTR2B antagonist activity, calcium mobilization assay in human Maverick/293 cells (serotonin as agonist); assay type: cell-based; conditions: intracellular calcium, emission 525 nm, read-out: Ca assay IC50
T1 construct: host or cells: human Maverick/293 cells
T1 sequence (P41595 whole entry): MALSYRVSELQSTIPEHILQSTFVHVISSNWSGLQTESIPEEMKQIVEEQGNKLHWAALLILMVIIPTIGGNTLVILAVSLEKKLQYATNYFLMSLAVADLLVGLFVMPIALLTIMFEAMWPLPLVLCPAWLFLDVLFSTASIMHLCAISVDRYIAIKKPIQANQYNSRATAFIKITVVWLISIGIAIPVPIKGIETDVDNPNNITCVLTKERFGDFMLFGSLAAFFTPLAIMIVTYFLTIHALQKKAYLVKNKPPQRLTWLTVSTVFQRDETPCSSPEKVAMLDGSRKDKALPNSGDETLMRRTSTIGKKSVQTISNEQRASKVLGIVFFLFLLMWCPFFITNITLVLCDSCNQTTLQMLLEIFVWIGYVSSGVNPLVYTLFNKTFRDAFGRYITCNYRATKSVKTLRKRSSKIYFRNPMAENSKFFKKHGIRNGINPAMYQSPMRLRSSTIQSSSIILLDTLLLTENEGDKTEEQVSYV
Summary of the method: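 Calcium mobilization read over 80 s at ex 485/em 525 nm after serotonin addition. Before that, 2 h serum-free starvation, 50 min dye loading at 37 °C, and 15-30 min antagonist exposure. IC50 from sigmoidal fit of peak % inhibition.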

Structure (SMILES)	pIC50
COc1ccc(S(=O)(=O)N[C@H]2CCOC2)cc1C(=O)Nc1c(F)cc(F)cc1Cl [Compound 78, (S)—N-(2-Chloro-4,6-difluorophenyl)-2-methoxy-5-(N-(tetrahydrofuran-3-yl)sulfamoyl)benzamide]	8.62
COc1ccc(S(=O)(=O)N[C@H]2C[C@H](O)C2)cc1C(=O)Nc1ccc(F)c(C)c1 [Compound 6a, N-(4-Fluoro-3-methylphenyl)-5-(N-((trans)-3-hydroxycyclobutyl)sulfamoyl)-2-methoxybenzamide]	7.74
COc1ccc(S(=O)(=O)N[C@H]2CCOC2)cc1C(=O)Nc1ccc(Cl)cc1 [Compound 108, (S)—N-(4-Chlorophenyl)-2-methoxy-5-(N-(tetrahydrofuran-3-yl)sulfamoyl) benzamide]	8.26
COc1ccc(S(=O)(=O)N[C@H]2CCOC2)cc1C(=O)Nc1cccc(C#N)c1 [Compound 102, (S)—N-(3-cyanophenyl)-2-methoxy-5-(N-(tetrahydrofuran-3-yl)sulfamoyl) benzamide]	6.36
COc1ccc(S(=O)(=O)N2CCCC2)cc1C(=O)Nc1ccc(F)c(C)n1 [Compound 30, N-(5-Fluoro-6-methylpyridin-2-yl)-2-methoxy-5-(pyrrolidin-1-ylsulfonyl) benzamide]	7.62
COc1ccc(S(=O)(=O)N[C@H]2CCOC2)cc1C(=O)Nc1ccccc1C1CC1 [Compound 151, (S)—N-(2-Cyclopropylphenyl)-2-methoxy-5-(N-(tetrahydrofuran-3-yl)sulfamoyl) benzamide]	7.41
COc1c(F)cc(S(=O)(=O)N[C@H]2CCOC2)cc1C(=O)Nc1ccc(F)c(C)c1 [Compound 200, (S)-3-fluoro-N-(4-fluoro-3-methylphenyl)-2-methoxy-5-(N-(tetrahydrofuran-3-yl)sulfamoyl)benzamide]	8.48
COc1ccc(S(=O)(=O)N[C@@H](C)CO)cc1C(=O)Nc1ccc(F)c(C)c1 [Compound 10a, (S)—N-(4-Fluoro-3-methylphenyl)-5-(N-(1-hydroxypropan-2-yl)sulfamoyl)-2-methoxybenzamide]	8.35
COc1ccc(S(=O)(=O)NC2COC2)cc1C(=O)Nc1ccc(F)c(C(F)F)c1 [Compound 39, N-(3-(Difluoromethyl)-4-fluorophenyl)-2-methoxy-5-(N-(oxetan-3-yl)sulfamoyl)benzamide]	8.44
COc1ccc(S(=O)(=O)NC(C)C)cc1C(=O)Nc1ccc(F)c(C)c1 [Compound 8, N-(4-Fluoro-3-methylphenyl)-5-(N-isopropylsulfamoyl)-2-methoxybenzamide]	8.60
COc1ccc(S(=O)(=O)NC2CCOCC2)cc1C(=O)Nc1ccc(F)c(C)n1 [Compound 17, N-(5-Fluoro-6-methylpyridin-2-yl)-2-methoxy-5-(N-(tetrahydro-2H-pyran-4-yl)sulfamoyl)benzamide]	8.14
COc1ccc(S(=O)(=O)N[C@H]2C[C@@H](O)C2)cc1C(=O)Nc1ccc(Cl)cc1F [Compound 143b, N-(4-chloro-2-fluorophenyl)-5-(N-((cis)-3-hydroxycyclobutyl)sulfamoyl)-2-methoxybenzamide]	8.23
COc1ccc(S(=O)(=O)N[C@H]2CCOC2)cc1C(=O)Nc1c(F)cc(F)cc1F [Compound 76, (S)-2-Methoxy-5-(N-(tetrahydrofuran-3-yl)sulfamoyl)-N-(2,4,6-trifluorophenyl) benzamide]	8.51
COc1ccc(S(=O)(=O)N[C@H]2CCOC2)cc1C(=O)Nc1ccc(F)c(C#N)c1 [Compound 95, (S)—N-(3-Cyano-4-fluorophenyl)-2-methoxy-5-(N-(tetrahydrofuran-3-yl)sulfamoyl)benzamide]	6.19
COc1ccc(S(=O)(=O)N[C@H]2CCOC2)cc1C(=O)Nc1ncc(C)s1 [Compound 84, (S)-2-methoxy-N-(5-methylthiazol-2-yl)-5-(N-(tetrahydrofuran-3-yl)sulfamoyl) benzamide]	6.15
COc1ccc(S(=O)(=O)NC2(C(F)(F)F)CC2)cc1C(=O)Nc1ccc(F)c(C)n1 [Compound 168, N-(5-fluoro-6-methylpyridin-2-yl)-2-methoxy-5-(N-(1-(trifluoromethyl)cyclopropyl)sulfamoyl)benzamide]	8.41
COc1ccc(S(=O)(=O)N[C@H]2CCOC2)cc1C(=O)Nc1ccc(F)c(C(F)(F)F)c1 [Compound 160, (S)—N-(4-Fluoro-3-(trifluoromethyl)phenyl)-2-methoxy-5-(N-(tetrahydrofuran-3-yl)sulfamoyl)benzamide]	8.34

Now those with a higher pIC50, led by results:

pIC50	Structure (SMILES)
9.70	COc1ccc(S(=O)(=O)NC2CC[C@@H](O)C2)cc1C(=O)Nc1ccccc1Cl (stereo partly drawn) [Compound 57b, N-(2-Chlorophenyl)-5-(N-((cis)-3-hydroxycyclopentyl)sulfamoyl)-2-methoxy benzamide]
8.92	COc1ccc(S(=O)(=O)N[C@H]2CCOC2)cc1C(=O)Nc1ccccc1OC(F)F [Compound 128, (S)—N-(2-(Difluoromethoxy)phenyl)-2-methoxy-5-(N-(tetrahydrofuran-3-yl)sulfamoyl)benzamide]
8.89	COc1ccc(S(=O)(=O)N[C@@H]2CC[C@H](O)C2)cc1C(=O)Nc1ccc(F)cc1 (single isomer, unassigned) [Compound 45a, N-(4-Fluorophenyl)-5-(N-((cis)-3-hydroxycyclopentyl)sulfamoyl)-2-methoxybenzamide]
8.82	COc1ccc(S(=O)(=O)N[C@H]2CCOC2)cc1C(=O)Nc1cc(F)ccc1F [Compound 69, (S)—N-(2,5-Difluorophenyl)-2-methoxy-5-(N-(tetrahydrofuran-3-yl)sulfamoyl) benzamide]
8.80	COc1ccc(S(=O)(=O)N[C@@H]2CCNC2)cc1C(=O)Nc1ccc(F)cc1F [Compound 188, (R)—N-(2,4-difluorophenyl)-2-methoxy-5-(N-(pyrrolidin-3-yl)sulfamoyl) benzamide]
8.72	COc1ccc(S(=O)(=O)N[C@H]2C[C@@H](O)C2)cc1C(=O)Nc1ccc(F)c(C)c1 [Compound 6b, N-(4-Fluoro-3-methylphenyl)-5-(N-((cis)-3-hydroxycyclobutyl)sulfamoyl)-2-methoxybenzamide]
9.05	[2H]C([2H])([2H])Oc1ccc(S(=O)(=O)N[C@H]2CCOC2)cc1C(=O)Nc1ccc(F)c(C2CC2)n1 [Compound 195, (S)—N-(6-cyclopropyl-5-fluoropyridin-2-yl)-2-(methoxy-d3)-5-(N-(tetrahydrofuran-3-yl)sulfamoyl)benzamide]
8.89	COc1ccc(S(=O)(=O)N[C@H]2CCOC2)cc1C(=O)Nc1ccc(F)c(F)c1 [Compound 111, (S)—N-(3,4-Difluorophenyl)-2-methoxy-5-(N-(tetrahydrofuran-3-yl)sulfamoyl) benzamide]
8.64	COc1ccc(S(=O)(=O)NC2CC(F)(F)C2)cc1C(=O)Nc1ccc(F)c(C)c1 [Compound 1, 5-(N-(3,3-Difluorocyclobutyl)sulfamoyl)-N-(4-fluoro-3-methylphenyl)-2-methoxybenzamide]
9.00	COc1ccc(S(=O)(=O)N[C@H]2C[C@@H](O)C2)cc1C(=O)Nc1cc(F)ccc1Cl [Compound 146b, N-(2-chloro-5-fluorophenyl)-5-(N-((cis)-3-hydroxycyclobutyl)sulfamoyl)-2-methoxybenzamide]
9.10	COc1ccc(S(=O)(=O)N[C@H]2CCOC2)cc1C(=O)Nc1cc(F)c(F)cc1F [Compound 74, (S)-2-Methoxy-5-(N-(tetrahydrofuran-3-yl)sulfamoyl)-N-(2,4,5-trifluorophenyl) benzamide]
